Data reported in patent publication US20090118258A1, “COMBINATION THERAPY COMPRISING ANGIOTENSIN CONVERTING ENZYME INHIBITORS AND VASOPRESSIN RECEPTOR ANTAGONISTS” (priority 2007, published 2009).

How the values were obtained:
[1] = system: rat remnant kidney model; assay: Rat remnant kidney model of nephropathy (renal mass reduction, RMR); format: in vivo; settings: for serum creatinine / urine protein: 1 and 2 months of treatment, Compound 1 10 and 30 mg/kg/d, FIG. 1; for serum creatinine / urine protein / percentage of sclerotic glomeruli: combination enalapril + Compound 1 30 mg/kg/d; for number of ED 1 positive cells per field (monocytes/macrophages in renal interstitium): termination, vehicle 63±4; for percentage of sclerotic glomeruli: renal histology at termination, Compound 1 10 or 30 mg/kg/d, enalapril, FIG. 2
Text: The rat remnant kidney model is an animal model of severe progressive renal failure. In this model, a state of severe progressive renal failure is produced by renal mass reduction (RMR) through removal of one kidney and ligation of several branches of the renal artery, resulting in infarction and loss of function of two thirds of the remaining kidney. The procedure creates the conditions of severe hypertension, proteinuria, progressive renal function deterioration, tubulointerstitial damage and glomerulosclerosis (Olson J L, Hostetter T H, Rennke H G, Brenner B M, Venkatachalam M A: “Altered glomerular permselectivity and progressive sclerosis following extreme ablation of renal mass”. Kidney Int 22:112-126, 1982).
Nephropathy is evident as a progressively increasing amount of protein in urine, increases in serum creatinine and increases in arterial pressure. In addition, severe sclerosis of the glomeruli, inflammatory cell infiltration and tubular damage are measurable through histological analysis within 3 months of renal mass reduction (RMR). These measures form the basis for determining efficacy in the model. Urine protein, serum creatinine and arterial pressure are similarly measured in humans to determine impact of treatments on disease progression.
The aim of this study was to evaluate the effects of Compound 1 compared to an ACE inhibitor (enalapril), as well as the combination treatment with Compound 1 and enalapril, on proteinuria and renal disease progression in this model. The effectiveness of these agents has been associated with reductions in proteinuria, slowing of the rate of rise in serum creatinine and reduction in glomerular sclerosis and thus slowing of the progression to end stage renal failure.
(§1) Treatments were started 21 days after RMR, when animals already had overt nephropathy. Treatment groups (n=8/group, except enalapril n=7) included vehicle; Compound 1 at 10 mg/kg/d; Compound 1 at 30 mg/kg/d; enalapril at 15 mg/mL (in drinking water); and enalapril at 15 mg/mL+Compound 1 at 30 mg/kg/d. All compounds were administered in drinking water. An additional sham-operated untreated group was also included. Measurements were made at 21 d after RMR but before treatment, and at one and two months of treatment. […] Since the increased mortality was not dose dependent and was not apparent in the group receiving combination treatment with Compound 1 and enalapril (Table 1), the effect is likely due to chance and the known variability in the severity of renal failure in this model.

[2] = system: rat remnant kidney model; assay: Blood pressure in rat remnant kidney model; format: in vivo; settings: Compound 1 10 and 30 mg/kg/d; enalapril; combination enalapril + Compound 1 30 mg/kg/d; FIG. 3
Description: as §1
Blood pressure reduction can contribute to slowing the progression of renal disease in this animal model as well as in humans.

[3] = system: rat remnant kidney model; assay: Water intake and diuresis in remnant kidney model; format: in vivo; settings: mean ± S.E.
Description: as §1, with “Treatment groups (n=8/group, except enalapril n=7) included vehicle; Compound 1 at 10 mg/kg/d; Compound 1 at 30 mg/kg/d; enalapril at 15 mg/mL (in drinking water); and enalapril at 15 mg/mL+Compound 1 at 30 mg/kg/d.” left out
(§2) Water intake and diuresis was increased in all treatment groups following RMR (Table 2). […] There were no differences in serum electrolytes in any of the treatment groups at the termination of the experiment (Table 2).

[4] = system: rat remnant kidney model; assay: Serum and urine electrolytes in remnant kidney model; format: in vivo; settings: for urinary Na excretion: both doses of Compound 1 (10, 30 mg/kg/d), reduced in vehicle treated RMR rats; for urinary Na excretion / urinary Cl excretion / urinary K excretion: enalapril alone, combination; for urinary Cl excretion / urinary K excretion: both doses of Compound 1, reduced in RMR rats vs control
Description: as §1, §2
Urinary Na excretion was reduced in the vehicle treated RMR rats. […] Urinary K and Cl excretion were reduced in rats with RMR compared to control rats.

[5] = system: streptozotocin-induced diabetic rat; assay: Streptozotocin-induced diabetic rat model of nephropathy; format: in vivo; settings: for serum albumin concentrations / kidney weight or renal glomerular or mesangial morphology: 30 mg/kg/d; for kidney weight or renal glomerular or mesangial morphology: compared to vehicle treated diabetic rats
Description: The streptozotocin-induced diabetic rat is a model of Type I diabetes that develops early renal dysfunction manifested as increased urine albumin excretion. One week after administration of streptozotocin, 65 mg/kg, i.p., rats were assigned to the following treatment groups: no treatment; Compound 1 at 30 mg/kg/d; or enalapril at 30 mg/kg/d. Both compounds were dosed in drinking water for 12 weeks. Mortality among the treatment groups at 12 weeks was 1/10 in the untreated and Compound 1-treated groups and 3/10 in the enalapril-treated group. As a result of the diabetic state, urine volumes were nearly 10 times that of non-diabetic rats. […] The fraction of filtered sodium and potassium excreted was unaffected by either Compound 1 and enalapril.

[6] = system: Type I diabetic rats; assay: Arterial pressure and heart rate in Type I diabetic rats after seven days oral administration; format: in vivo, rat; settings: oral administration for seven days
Description: Oral administration of Compound 1 for seven days in Type I diabetic rats had no effect on mean arterial pressure or heart rate over 48 h in diabetic rats. […] Oral administration of enalapril for seven days had no effect on arterial pressure over 48 h in diabetic rat

[7] = system: db/db mice; format: in vivo; settings: for urinary albumin excretion (in words): 30 mg/kg/d in drinking water for 16 weeks; for mesangial surface area or percentage of glomerular area occupied by mesangium / urine osmolarity: 30 mg/kg/d; for mesangial surface area or percentage of glomerular area occupied by mesangium: compared to vehicle-treated animals; for urine osmolarity: throughout 16 weeks of dosing
Description: Male db/db mice, a genetic model of type 2 diabetes, develop early renal dysfunction manifested as increased urine albumin excretion. At 9 weeks of age diabetes was confirmed by measurement of blood glucose (>300 mg/dL) and animals assigned to one of three treatment groups (n=12/group): untreated, Compound 1, 30 mg/kg/d and enalapril, 30 mg/kg/d. Compounds were dosed in drinking water for 16 weeks. There was no mortality in any of the treatment groups. Body weights for animals were similar at the beginning of the study.

[8] = 1 month of treatment, Compound 1 10 mg/kg/d
[9] = 1 month of treatment, Compound 1 30 mg/kg/d
[10] = 2 month of treatment, Compound 1 10 mg/kg/d
[11] = 2 month of treatment, Compound 1 30 mg/kg/d
[12] = basal (before RMR and treatment), group Compound 1 10 mg/kg/d
[13] = basal (before RMR and treatment), group Compound 1 30 mg/kg/d
[14] = pre-treatment (21 d after RMR), group Compound 1 10 mg/kg/d
[15] = pre-treatment (21 d after RMR), group Compound 1 30 mg/kg/d
[16] = 30 mg/kg/d in drinking water for 12 weeks
[17] = compared to vehicle treated controls
[18] = 1 month of treatment, Enalapril 15 mg/L
[19] = 2 month of treatment, Enalapril 15 mg/L
[20] = basal (before RMR and treatment), group Enalapril 15 mg/L
[21] = pre-treatment (21 d after RMR), group Enalapril 15 mg/L

COc1cc(C(=O)N2CC[C@]3(C=C(C(=O)O)CC3)Cc3ccccc32)ccc1NC(=O)c1cc(F)ccc1Cl [Compound 1]
serum creatinine ([1]; enalapril 15 mg/mL): reduced urine protein and serum creatinine when administered alone but not to the same extent as enalapril
urine protein ([1]; enalapril 15 mg/mL): reduced urine protein and serum creatinine when administered alone but not to the same extent as enalapril
number of ED 1 positive cells per field (monocytes/macrophages in renal interstitium) ([1]; Compound 1 10 mg/kg/d, not statistically significant): 48±4 positive cells per field
number of ED 1 positive cells per field (monocytes/macrophages in renal interstitium) ([1]; Compound 1 30 mg/kg/d, not statistically significant): 49±10 positive cells per field
mortality (in words) ([1]; Compound 1 10 and 30 mg/kg/d alone, combination Compound 1 30 mg/kg/d + enalapril, not dose dependent, judged due to chance): apparent excess mortality
Mortality rate ([1]; rat, in vivo, 10 mg/kg/day, 1 month): 2/8
Mortality rate ([1]; rat, in vivo, 10 mg/kg/day, 2 months): 4/8
Mortality rate ([1]; rat, in vivo, 30 mg/kg/day, 1 month): 2/8
Mortality rate ([1]; rat, in vivo, 30 mg/kg/day, 2 months): 3/8
percentage of sclerotic glomeruli [1]: tended to decrease the percentage of sclerotic glomeruli compared with vehicle, but this was not statistically significant
arterial pressure [2]: significant reductions in arterial pressure compared to vehicle
diuresis [3, 8]: 47 ± 2 mL/24 h
water intake [3, 8]: 53 ± 9° mL/24 h
diuresis [3, 9]: 41 ± 4 mL/24 h
water intake [3, 9]: 60 ± 7 mL/24 h
diuresis [3, 10]: 43 ± 5 mL/24 h
water intake [3, 10]: 62 ± 6 mL/24 h
diuresis [3, 11]: 49 ± 8 mL/24 h
water intake [3, 11]: 60 ± 16 mL/24 h
diuresis [3, 12]: 19 ± 1 mL/24 h
water intake [3, 12]: 43 ± 5 mL/24 h
diuresis [3, 13]: 19 ± 1 mL/24 h
water intake [3, 13]: 47 ± 3 mL/24 h
diuresis [3, 14]: 44 ± 3 mL/24 h
water intake [3, 14]: 66 ± 5 mL/24 h
diuresis [3, 15]: 55 ± 4 mL/24 h
water intake [3, 15]: 76 ± 6 mL/24 h
urinary Na excretion [4]: tended to normalize urinary Na excretion to similar extents
urinary Cl excretion [4]: tended to normalize urinary K and Cl excretion
urinary K excretion [4]: tended to normalize urinary K and Cl excretion
fraction of filtered sodium and potassium excreted [5, 16]: unaffected
urine endpoints: daily volume output, osmolarity, chloride, creatinine, sodium or potassium concentrations, clearances or excretion values [5, 16]: not significantly altered
urine albumin excretion ([5]; 30 mg/kg/d in drinking water, compared to vehicle treated controls, FIG. 4): significant decrease
serum albumin concentrations [5, 17]: not statistically significant, serum albumin concentrations increased
kidney weight or renal glomerular or mesangial morphology [5]: no significant effects
urine free water clearance ([5]; Compound 1 30 mg/kg/d): trend toward increased urine free water clearance
serum osmolarity ([5]; Compound 1 30 mg/kg/d, compared to vehicle treated controls): decreased significantly
(mean) arterial pressure over 48 h [6]: no effect
heart rate over 48 h [6]: no effect
urinary albumin excretion (in words) ([7]; FIG. 5): unaffected
mesangial surface area or percentage of glomerular area occupied by mesangium [7]: No significant differences
urine osmolarity [7]: unaffected by treatment

CCOC(=O)[C@H](CCc1ccccc1)N[C@@H](C)C(=O)N1CCC[C@H]1C(=O)O [Enalapril, enalapril, reference compound]
serum creatinine ([1]; enalapril 15 mg/mL): significantly reduced
urine protein ([1]; enalapril 15 mg/mL): significantly reduced
Mortality rate ([1]; 1 month of treatment, enalapril in drinking water, dead/total): 0/7
Mortality rate ([1]; 2 month of treatment, enalapril in drinking water, dead/total): 1/7
number of ED 1 positive cells per field (monocytes/macrophages in renal interstitium) ([1]; enalapril 15 mg/mL, statistically significant reduction): 38±6 positive cells per field
percentage of sclerotic glomeruli [1]: significant reduction
arterial pressure [2]: significant reductions in arterial pressure compared to vehicle
diuresis [3, 18]: 46 ± 4 mL/24 h
water intake [3, 18]: 60 ± 4*° mL/24 h
diuresis [3, 19]: 45 ± 3 mL/24 h
water intake [3, 19]: 59 ± 6 mL/24 h
diuresis [3, 20]: 19 ± 1 mL/24 h
water intake [3, 20]: 44 ± 4 mL/24 h
diuresis [3, 21]: 46 ± 5 mL/24 h
water intake [3, 21]: 66 ± 6 mL/24 h
urinary Na excretion [4]: tended to normalize urinary Na excretion to similar extents
urinary Cl excretion [4]: tended to normalize urinary K and Cl excretion
urinary K excretion [4]: tended to normalize urinary K and Cl excretion
urine chloride ion (Cl−) ([4]; compared to vehicle group): significantly greater than those in the vehicle group
fraction of filtered sodium and potassium excreted [5, 16]: unaffected
urine endpoints: daily volume output, osmolarity, chloride, creatinine, sodium or potassium concentrations, clearances or excretion values [5, 16]: not significantly altered
Mortality at 12 weeks ([5]; 30 mg/kg/d in drinking water for 12 weeks, dead/total, untreated 1/10): 3/10
serum albumin concentrations [5, 17]: not statistically significant, serum albumin concentrations increased
kidney weight or renal glomerular or mesangial morphology [5]: no significant effects
(mean) arterial pressure over 48 h [6]: no effect
urinary albumin excretion (in words) ([7]; FIG. 5): tended to reduce urine albumin excretion with significant differences observed at 2 weeks and 16 weeks compared to vehicle controls
mesangial surface area or percentage of glomerular area occupied by mesangium [7]: No significant differences
urine osmolarity [7]: unaffected by treatment
albumin excretion in urine ([7]; enalapril 30 mg/kg/d in drinking water, over 16 weeks, FIG. 5): ≤ 500 ug/24 h
